We go through 17 molecules from US9079919B2 (HOFFMANN-LA ROCHE INC., priority 2011, dated 2015).

Holding throughout (assay type): cell-based
For experiment [1], the target named is T1, BACE1 (Homo sapiens, UniProt P56817).
T1 construct: Human HEK293 cells which are stably transfected with a vector expressing a cDNA of the human APP wt gene (APP695); endogenous in cells; host or cells: HEK293 cells stably transfected with human APP695 (wt)
Kind of experiment: Cellular Aβ-lowering assay a) (Aβ40 ELISA). To be noted: cellular assay a): HEK293 cells expressing human APP695, Aβ40 in supernatant by ELISA after 18-20 hrs; read-out: BACE1 cell act. Aβ40 IC50. How it is done: a) Human HEK293 cells which are stably transfected with a vector expressing a cDNA of the human APP wt gene (APP695) were used to assess the potency of the compounds in a cellular assay. The cells were seeded in 96-well microtiter plates in cell culture medium (Iscove, plus 10% (v/v) fetal bovine serum, glutamine, penicillin/streptomycin) to about 80% confluence and the compounds were added at a 10× concentration in 1/10 volume of medium without FCS containing 8% DMSO (final concentration of DMSO was kept at 0.8% v/v). After 18-20 hrs incubation at 37° C. and 5% CO2 in a humidified incubator the culture supernatant was harvested for the determination of Aβ40 concentrations. 96 well ELISA plates (e.g., Nunc MaxiSorb) were coated with monoclonal antibody which specifically recognize the C-terminal end of Aβ40 (Brockhaus et al., NeuroReport 9, 1481-1486; 1998). After blocking of non-specific binding sites with e.g. 1% BSA and washing, the culture supernatants were added in suitable dilutions together with a horseradish peroxidase-coupled Aβ detection antibody (e.g., antibody 4G8, Senetek, Maryland Heights, Mo.) and incubated for 5 to 7 hrs. Subsequently the wells of the microtiter plate were washed extensively with Tris-buffered saline containing 0.05% Tween 20 and the assay was developed with tetramethylbenzidine/H2O2 in citric acid buffer. After stopping the reaction with one volume of 1N H2SO4 the reaction was measured in an ELISA reader at 450 nm wavelength. The concentrations of Aβ in the culture supernatants were calculated from a standard curve obtained with known amounts of pure Aβ peptide.
Background: ELISA stands for enzyme-linked immunosorbent assay.

For the next experiment, the target named is T2, BACE2 (Rattus norvegicus, UniProt Q6IE75).
T2 construct: endogenous cellular BACE2 in the Ins1e rat cell line; endogenous in cells; host or cells: INS-TMEM27 (INS1e-derived rat cell line with doxycycline-inducible full-length human TMEM27)
T2 sequence (Q6IE75 63-514): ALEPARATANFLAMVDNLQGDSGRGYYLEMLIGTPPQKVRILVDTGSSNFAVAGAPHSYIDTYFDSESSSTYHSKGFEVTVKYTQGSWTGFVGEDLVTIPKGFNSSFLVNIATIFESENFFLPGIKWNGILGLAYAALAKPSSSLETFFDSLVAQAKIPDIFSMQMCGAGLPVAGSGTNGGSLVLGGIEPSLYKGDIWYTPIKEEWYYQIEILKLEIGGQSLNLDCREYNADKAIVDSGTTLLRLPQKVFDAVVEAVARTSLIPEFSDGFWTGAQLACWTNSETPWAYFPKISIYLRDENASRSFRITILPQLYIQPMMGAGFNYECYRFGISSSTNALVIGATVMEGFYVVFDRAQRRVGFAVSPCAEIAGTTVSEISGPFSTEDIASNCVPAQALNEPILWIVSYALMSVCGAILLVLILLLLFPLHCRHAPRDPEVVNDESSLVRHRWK
Kind of experiment: Assay for BACE inhibition by measuring cellular TMEM27 cleavage. The conditions noted are these: INS-TMEM27 cells (INS1e-derived), shed human TMEM27 by ELISA; read-out: BACE2 cell act. IC50. From the text:
The assay uses the principle of inhibition of human TMEM27 cleavage by endogenous cellular BACE2 in the Ins1e rat cell line and shedding from the cell surface into the culture medium, followed by detection in an ELISA assay. Inhibition of BACE2 prevents the cleavage and shedding in a dose-dependent manner.
The stable cell line “INS-TMEM27” represents an INS1e-derived cell line with inducible expression (using the TetOn system) of full-length hTMEM27 in a doxycycline-dependent manner. The cells are cultured throughout the experiment in RPMI1640+ Glutamax (Invitrogen) Penicillin/Streptomycin, 10% Fetal bovine serum, […], […], 100 micrograms/ml G418 and 100 microgram/ml hygromycin and are grown inadherent culture at 37° C. in a standard CO2 cell culture incubator.
INS-TMEM27 cells are seeded in 96-well plates. After 2 days in culture, BACE2 inhibitor is added in a range of concentrations as required by the assay and after a further two hours, doxycycline is added to a final concentration of 500 ng/ml. The cells are incubated for a further 46 hours and the supernatant harvested for detection of shed TMEM27.
An ELISA assay (using a pair of mouse anti-human-TMEM27 antibodies, raised against the extracellular domain of TMEM27) is used for detection of TMEM27 in the culture medium. An EC50 for BACE2 inhibition is calculated using the ELISA readout for each inhibitor concentration with standard curve-fitting software such as XLFit for the Excel spreadsheet program.

For experiment [2], the target named is T1, BACE1. Kind of experiment: Cellular Aβ-lowering assay b) (Abeta 40 AlphaLISA Assay). The conditions noted are these: cellular assay b): HEK293 APP cells, Aβ40 in supernatant by AlphaLISA after 18-20 hrs; read-out: BACE1 cell act. Aβ40 IC50. How it is done: b) Alternatively, the Abeta 40 AlphaLISA Assay can be used. The HEK293 APP cells were seeded in 96 well Microtiter plates in cell culture medium (Iscove's, plus 10% (v/v) fetal bovine serum, penicillin/streptomycin) to about 80% confluency and the compounds were added at a 3× concentration in 1/3 volume of culture medium (final DMSO concentration was kept at 1% v/v). After 18-20 hrs incubation at 37° C. and 5% CO2 in a humidified incubator, the culture supernatants were harvested for the determination of Aβ 40 concentrations using Perkin-Elmer Human Amyloid beta 1-40 (high specificity) Kit (Cat#AL275C).
In a Perkin-Elmer White Optiplate-384 (Cat#6007290), 2 ul culture supernatants were combined with 2 μl of a 10× AlphaLISA Anti-hAβ Acceptor beads+Biotinylated Antibody Anti-Aβ 1-40 Mix (50 μg/mL/5 nM). After 1 hour room temperature incubation, 16 μl of a 1.25× preparation of Streptavidin (SA) Donor beads (25 μg/mL) were added and incubated for 30 minutes in the Dark. Light Emission at 615 nm was then recorded using EnVision-Alpha Reader. Levels of Aβ 40 in the culture supernatants were calculated as percentage of maximum signal (cells treated with 1% DMSO without inhibitor). The IC50 values were calculated using the Excel XLfit software.
A general note: Bead proximity is the source of the signal in Alpha formats.

Where a name gives a salt, the structure may show the parent alone.

T1 sequence (P56817 46-501): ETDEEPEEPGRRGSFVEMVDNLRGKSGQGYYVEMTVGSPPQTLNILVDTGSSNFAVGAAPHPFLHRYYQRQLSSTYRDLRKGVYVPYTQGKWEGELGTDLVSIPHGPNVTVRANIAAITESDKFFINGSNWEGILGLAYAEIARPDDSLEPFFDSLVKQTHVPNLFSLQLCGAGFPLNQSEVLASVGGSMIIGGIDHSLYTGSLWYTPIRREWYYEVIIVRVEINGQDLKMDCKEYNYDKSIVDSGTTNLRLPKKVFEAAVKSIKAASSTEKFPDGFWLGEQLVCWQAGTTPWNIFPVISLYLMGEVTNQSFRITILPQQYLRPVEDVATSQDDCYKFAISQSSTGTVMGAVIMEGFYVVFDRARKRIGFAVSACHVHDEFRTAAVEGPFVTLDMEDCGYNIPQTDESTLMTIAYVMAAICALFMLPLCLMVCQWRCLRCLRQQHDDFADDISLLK

As for `NC1=N[C@@]2(CCSc3ccc(-c4cncc(Cl)c4)cc32)C(F)(F)CO1` [Example 32, (R)-6′-(5-Chloropyridin-3-yl)-5,5-difluoro-5,6-dihydrospiro[[1,3]oxazine-4,4′-thiochroman]-2-amine], the results for the IC50 on BACE1 [1] and on BACE2 were 676 nM and 1950 nM, respectively.

With `N#Cc1ccc(C(=O)Nc2ccc3c(c2)[C@@]2(CCO3)N=C(N)OCC2(F)F)nc1` [Example 34, (R)—N-(2′-Amino-5′,5′-difluoro-5′,6′-dihydrospiro[chroman-4,4′-[1,3]oxazine]-6-yl)-5-cyanopicolinamide], the IC50 (commonly the concentration that gives 50% inhibition) on BACE1 [1] was 80 nM; on BACE2, 1920 nM. On to `NC1=N[C@@]2(CCSc3ccc(NC(=O)c4ccc(Cl)cn4)cc32)C(F)(F)CO1` [Example 42, (R)—N-(2-Amino-5,5-difluoro-5,6-dihydrospiro[[1,3]oxazine-4,4′-thiochroman]-6′-yl)-5-chloropicolinamide], for which the IC50 on BACE1 [1] was found to be 35 nM; at BACE2, 438 nM. As to `NC1=N[C@@]2(CCCc3ccc(-c4cncc(Cl)c4)cc32)C(F)(F)CO1` [Example 1, (R)-7-(5-Chloropyridin-3-yl)-5′,5′-difluoro-3,4,5′,6′-tetrahydro-2H-spiro[naphthalene-1,4′-[1,3]oxazin]-2′-amine], the IC50 at BACE1 [1] is 100 nM; on BACE2, 543 nM.

Turning to `N#Cc1cncc(-c2ccc3c(c2)[C@@]2(CCC3)N=C(N)OCC2(F)F)c1` [Example 2, (R)-5-(2′-Amino-5′,5′-difluoro-3,4,5′,6′-tetrahydro-2H-spiro[naphthalene-1,4′-[1,3]oxazine]-7-yl)nicotinonitrile], the IC50 stood at 80 nM at BACE1 [1] and 526 nM on BACE2. With `NC1=N[C@@]2(C[C@]3(CCCOC3)Oc3ccc(-c4cncc(Cl)c4)cc32)C(F)(F)CO1` [Example 31, (2′S,4R)-6′-(5-Chloropyridin-3-yl)-5,5-difluoro-5,5″,6,6″-tetrahydro-4″H-dispiro[1,3-oxazine-4,4′-chromene-2′,3″-pyran]-2-amine formate], the IC50 at BACE1 [2] was 9 µM. Consider `NC1=N[C@@]2(CCOc3ccc(-c4cc(Cl)cc(Cl)c4)cc32)C(F)(F)CO1` [Example 20, (R)-6-(3,5-dichlorophenyl)-5′,5′-difluoro-5′,6′-dihydrospiro[chroman-4,4′-[1,3]oxazin]-2′-amine], for which the IC50 at BACE1 [1] amounted to 2020 nM; at BACE2, 3990 nM.

Take `N#Cc1ccc(C(=O)Nc2ccc3c(c2)[C@@]2(CCC3)N=C(N)OCC2(F)F)nc1` [Example 13, (R)—N-(2′-Amino-5′,5′-difluoro-3,4,5′,6′-tetrahydro-2H-spiro[naphthalene-1,4′-[1,3]oxazine]-7-yl)-5-cyanopicolinamide]: the 50% inhibitory concentration (IC50) on BACE1 [1] was 5 nM; on BACE2, 116 nM. Regarding `NC1=N[C@@]2(CCOc3ccc(NC(=O)c4ncc(Cl)cc4Cl)cc32)C(F)(F)COC1` [Example 51, (R)—N-(3′-Amino-6′,6′-difluoro-6′,7′-dihydro-2′H-spiro[chroman-4,5′-[1,4]oxazepine]-6-yl)-3,5-dichloropicolinamido], the IC50 came out at 1690 nM on BACE1 [1] and 5870 nM at BACE2. Taken in the same sequence, the figures for `COc1cncc(-c2ccc3c(c2)[C@@]2(CCO3)N=C(N)OCC2(F)F)c1` [Example 22, (R)-5′,5′-difluoro-6-(5-methoxypyridin-3-yl)-5′,6′-dihydrospiro[chroman-4,4′-[1,3]oxazin]-2′-amine] were 2780 nM and 926 nM. `NC1=N[C@@]2(CCc3ccc(-c4cc(Cl)cc(Cl)c4)cc32)C(F)(F)CO1` [Example 8, (R)-6-(3,5-Dichlorophenyl)-5′,5′-difluoro-2,3,5′,6′-tetrahydrospiro[indene-1,4′-[1,3]oxazin]-2′-amine]: the IC50 on BACE1 [1] amounted to 2450 nM; on BACE2, 2730 nM. `N#Cc1ccc(C(=O)Nc2ccc3c(c2)[C@@]2(CCS3)N=C(N)OCC2(F)F)nc1` [Example 43, (R)—N-(2-Amino-5,5-difluoro-5,6-dihydrospiro[[1,3]oxazine-4,4′-thiochroman]-6′-yl)-5-cyanopicolinamide]: the IC50 stood at 10 nM on BACE1 [1] and 148 nM at BACE2. As for `NC1=N[C@@]2(CCOc3ccc(NC(=O)c4ccc(Cl)cn4)cc32)C(F)(F)CO1` [Example 33, (R)—N-(2′-Amino-5′,5′-difluoro-5′,6′-dihydrospiro[chroman-4,4′-[1,3]oxazine]-6-yl)-5-chloropicolinamide], the results for the half-maximal inhibitory concentration (IC50) at BACE1 [1] and at BACE2 were 360 nM and 986 nM, respectively. As for `NC1=N[C@@]2(CCOc3ccc(-c4cncc(Cl)c4)cc32)C(F)(F)CO1` [Example 19, (R)-6-(5-Chloropyridin-3-yl)-5′,5′-difluoro-5′,6′-dihydrospiro[chroman-4,4′-[1,3]oxazin]-2′-amine], the IC50 at BACE1 [1] amounted to 380 nM; at BACE2, 124 nM. Consider `NC1=N[C@@]2(CCc3ccc(-c4cncc(Cl)c4)cc32)C(F)(F)CO1` [Example 9, (R)-6-(5-Chloropyridin-3-yl)-5′,5′-difluoro-2,3,5′,6′-tetrahydrospiro[indene-1,4′-[1,3]oxazin]-2′-amine], for which the results for the IC50 at BACE1 [1] and on BACE2 were 790 nM and 3580 nM, respectively. Taken in the same sequence, the figures for `CC1(C)CC[C@@]2(N=C(N)OCC2(F)F)c2cc(NC(=O)c3ccc(C#N)cn3)ccc21` [Example 14, (R)—N-(2′-Amino-5′,5′-difluoro-4,4-dimethyl-3,4,5′,6′-tetrahydro-2H-spiro[naphthalene-1,4′-[1,3]oxazine]-7-yl)-5-cyanopicolinamide] were 1110 nM and 13000 nM. The matching figures for `NC1=N[C@@]2(CCOc3ccc(-c4cc(Cl)cc(Cl)c4)cc32)C(F)(F)COC1` [Example 55, (R)-6-(3,5-Dichlorophenyl)-6′,6′-difluoro-6′,7′-dihydro-2′H-spiro[chroman-4,5′-[1,4]oxazepin]-3′-amine]: 3830 nM and 10500 nM.
